Results from ChEMBL document CHEMBL4261542, “Recent advances in combretastatin based derivatives and prodrugs as antimitotic agents” (Medchemcomm, 2017).

Assays:
[1] = Inhibition of [3H]colchicine binding to bovine brain tubulin after 20 mins by spectrophotometric analysis; set-up: species or system Bos taurus
SGC-7901 = assay: Antiproliferative activity against human SGC7901 cells after 72 hrs by MTT assay; assay type: functional, cell-based; conditions: SGC-7901, 72 h
HT-1080 = assay: Antiproliferative activity against human HT1080 cells after 72 hrs by MTT assay; assay type: functional, cell-based; conditions: HT-1080, 72 h
KB = assay: Antiproliferative activity against human KB cells after 72 hrs by MTT assay; assay type: functional, cell-based
L929 = assay: Cytotoxicity against mouse L929 cells after 72 hrs by MTT assay; assay type: cell-based; conditions: L929, 72 h
Tubulin = assay: Inhibition of tubulin polymerization (unknown origin); assay type: protein-complex assay, Homo sapiens
DU-145 = assay: Antiproliferative activity against human DU145 cells after 48 hrs by MTT assay; assay type: functional, cell-based; conditions: DU-145, 48 h
A549 = assay: Antiproliferative activity against human A549 cells; assay type: functional, cell-based
MCF7 = assay: Antiproliferative activity against human MCF7 cells; assay type: functional, cell-based

CCOc1ccc(-c2nccn2-c2cc(OC)c(OC)c(OC)c2)cc1Cl
IC50 [1]: 870 nM

COc1cc(-n2c(C)ccc2-c2cc(OC)c(OC)c(OC)c2)ccc1N
IC50 (SGC-7901): 390 nM
IC50 (HT-1080): 70 nM
IC50 (KB): 45 nM
IC50 (L929): 30100 nM

COc1ccc(N2C(=O)CSC2c2cc(OC)c(OC)c(OC)c2)cc1 (stereo not given)
IC50 (Tubulin): 2120 nM

COc1cc(/C=C(\c2cc(OC)c(OC)c(OC)c2)c2nnc(-c3cc(OC)c(OC)c(OC)c3)o2)ccc1O
IC50 (DU-145): 100 nM

COc1cc(/C=C(\c2cc(OC)c(OC)c(OC)c2)c2nc3cc(OC)c(OC)cc3o2)ccc1O
IC50 (A549): < 100 nM
IC50 (MCF7): < 100 nM

CCOc1ccc(-c2cc(C)nn2-c2cc(OC)c(OC)c(OC)c2)cc1Cl
IC50 (Tubulin): 1700 nM
